Assay results reported in PubChem BioAssay AID179 (DTP/NCI, 2004).
The source made the active and inactive calls.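 The calls were made as follows: active = compounds giving half or more protection of infected cells from virus-caused growth loss, again on retest; inactive = the rest.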

Tested on: CEM cells HIV-1 protection, formazan growth assay
Test: NCI AIDS Antiviral Assay
Settings: for IC50: measured here: growth of uninfected CEM cells
Outline: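 Category rules: moderately active means at least 50% protection on retest, and confirmed active means 100% protection reproducibly. The underlying data came from a formazan growth assay in HIV-1-infected CEM cells.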

Structure (SMILES)	EC50	IC50	outcome
NNC(=S)N/N=C(\C(=O)Nc1cccc(O)c1)C1C(=O)NC(=S)NC1=O	> 631 µM	447 µM	
CN(NC(=O)/C(=C/c1c(O)ccc2ccccc12)NC(=O)c1ccccc1)c1cn[nH]c(=O)c1Cl	> 200 µM	> 200 µM	
NNc1nnc(-c2nnc(NN)o2)o1	> 200 µM	> 200 µM	
N#Cc1nc(COCCOCc2ccccc2)oc1N	> 110 µM	107 µM	
Cc1nnc2n1-c1ccc(Cl)cc1C(c1ccccc1)=[N+]([O-])C2	> 398 µM	355 µM	
CC12CCC3(C1)[C@H](CC2=O)C[C@@H](OC(=O)c1ccccc1)C1C(C)(CO)CCC[C@@]13C (stereo partly drawn)	> 44.7 µM	0.891 µM	
C#C[C@]1(O)CCC2C3CCc4cc(Oc5nc(F)nc(-c6c7cc8ccccc8cc7c7n6CCS7)n5)ccc4C3CCC21C (stereo partly drawn)	> 200 µM	25.1 µM	
Cc1cc(C)c(-c2noc(-c3ccc(Cl)cc3)c2C2=NCCCN2)c(C)c1	> 35.5 µM	24.5 µM	
COC(=O)[C@H](C)N1C(=O)N[C@@H](C(C)C)C1=O	0.617 µM	> 200 µM	
CC(C)(CCCCC(C)(C)NCC1COc2ccccc2O1)NCC1COc2ccccc2O1 (stereo not drawn)	> 200 µM	7.24 µM	
NNC(=O)C1CCC(=O)N1S(=O)(=O)c1ccccc1 (stereo not drawn)			inactive
CO/N=C1\CC(NC(=O)C(F)(F)F)c2ccsc21 (stereo not drawn)	> 200 µM	> 200 µM	
COc1cc(/C=C(\C)[N+](=O)[O-])cc(OC)c1	> 200 µM	3.39 µM	
Cc1ccccc1N1C(=O)[N+]2(CCCCC2)N=C1[O-]	> 955 µM	295 µM	
COc1ccc2oc3c(OC)c(OC)c(OC)cc3c(=O)c2c1	> 8.71 µM		
CS(=O)(=O)OCCN1CCN(C(=O)c2cccc3c(Nc4ccc(S(=O)(=O)N=C(N)N)cc4)c4ccccc4nc23)CC1	> 35.5 µM	> 35.5 µM	
C[C@]12CCc3nonc3C1CC[C@@H]1C2CC[C@]2(C)C(=O)CCC12 (stereo partly drawn)	> 83.2 µM	> 83.2 µM	
CCOC(=O)C(C)(C(C)=O)c1nc(=S)[nH]c(=S)[nH]1 (stereo not drawn)	> 200 µM	95.5 µM	

Structure (SMILES)	EC50	IC50	outcome
O=[N+]([O-])c1ccc(CN(CCCl)OCCCl)cc1	> 200 µM	37.2 µM	
CC(=O)Oc1cc2c(cc1OC(C)=O)C1(C)CCC2(C)c2cc(OC(C)=O)c(OC(C)=O)cc21			inactive
N#Cc1c(-c2ccccc2)cn(C(=O)c2ccccc2)c1N	> 200 µM	191 µM	
Cc1ccc2nn(-c3ccc(O)cc3)nc2c1			inactive
CCN(CC)C(=S)Nc1ccc(-c2cc3ccc(O)cc3oc2=O)cc1	> 200 µM	14.1 µM	
N#Cc1sc2c(c1OC(=O)c1ccc(C(F)(F)F)cc1)c(=O)n(-c1ccccc1)c(=S)n2-c1ccccc1	> 200 µM	2.24 µM	
Cc1ccc(S(=O)(=O)N2CCCN(S(=O)(=O)c3ccc(C)cc3)CCN(S(=O)(=O)c3ccc(C)cc3)CCCSCC2)cc1	> 5.5 µM	> 5.5 µM	
O=c1c2ccccc2nc(-c2ccccc2Cl)n1NC1OC(CO)C(O)C(O)C1O (stereo not drawn)			inactive
CCN(CC)c1ccc2cc(-c3nc4ccccc4[nH]3)c(=O)oc2c1	> 7.76 µM	> 7.76 µM	
CC(C)(C)C1CCC2(CC1)CO2 (stereo not drawn)	> 200 µM	195 µM	
O=C(O)CCSC(=S)Nc1ccccc1			inactive
O=C(O)/C=C/c1ccc(OS(=O)(=O)O)cc1	> 200 µM	> 200 µM	
Cc1cc2c(C)nn(Cc3ccccc3Cl)c2c(C#N)c1C	> 23.4 µM	> 23.4 µM	
Cc1cn([C@H]2C[C@@H]3[C@@H](COC(CCN=[N+]=[N-])N3O)O2)c(=O)[nH]c1=O (stereo partly drawn)	72.4 µM	> 200 µM	
C=C1C(OC(=O)CC(c2ccccc2)N(C)C)C[C@H](OC(C)=O)[C@]2(C)C1C(O)[C@@H]1CC(OC(C)=O)C(C)=C([C@@H](OC(C)=O)C2OC(C)=O)C1(C)C (stereo partly drawn)			inactive
Cc1ccccc1-c1nc(/C=C2\C(=O)C=Cc3ccccc32)c(O)o1	> 200 µM	> 200 µM	
CCn1c(C)nc2c(N)cccc2c1=O	> 1230 µM	> 1230 µM	
